Experimental data from patent US5935951A, “1-acyl-4-aliphatylaminopiperidine compounds” (Novartis Finance Corporation, priority 1994, dated 1999).
Counter-ions that a name gives are not always drawn.

Biological target: T1, 3H-substance P binding to the bovine retina (Bos taurus, UniProt F1MIX5)
T1 construct: from tissue; host or cells: bovine retina
Assay: radioreceptor assay: binding of 3H-substance P to the bovine retina (according to H. Bittiger)
Settings: in vitro, read-out: in vitro values: inhibition of the binding of 3H-substance P to the bovine retina

T1 sequence (F1MIX5 1-407): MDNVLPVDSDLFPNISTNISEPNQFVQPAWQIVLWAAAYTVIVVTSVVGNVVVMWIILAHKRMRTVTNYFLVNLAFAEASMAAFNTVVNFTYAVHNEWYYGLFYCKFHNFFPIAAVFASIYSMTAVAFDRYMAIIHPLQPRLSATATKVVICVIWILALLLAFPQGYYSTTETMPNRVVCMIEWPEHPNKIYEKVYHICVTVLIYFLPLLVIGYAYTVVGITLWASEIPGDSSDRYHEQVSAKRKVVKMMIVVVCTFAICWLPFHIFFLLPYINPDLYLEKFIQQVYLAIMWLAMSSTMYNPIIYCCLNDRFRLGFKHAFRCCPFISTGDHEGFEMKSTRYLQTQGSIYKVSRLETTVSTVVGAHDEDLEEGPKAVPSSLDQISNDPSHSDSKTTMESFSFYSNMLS

Row | IC50 [µM] | SMILES
1 | 0.01 | NC(=O)CN[C@H]1CCN(C(=O)c2cc(C(F)(F)F)cc(C(F)(F)F)c2)[C@H](Cc2ccccc2)C1 [Example 2, (2R,4S)-2-[2-Benzyl-1-(3,5-bistrifluoromethylbenzoyl)piperidin-4-ylamino]-acetamide hydrochloride]
2 | 0.011 | CN(C)CCCOC(=O)N[C@H]1CCN(C(=O)c2cc(C(F)(F)F)cc(C(F)(F)F)c2)[C@H](Cc2ccccc2)C1 [16 (2nd compound), 3-dimethylaminopropyl (2R,4S)-N-[2-benzyl-1-(3,5-bistrifluoromethylbenzoyl)piperidin-4-yl]carbamate]
3 | 0.009 | O=C(NC1CCCCC1)N[C@H]1CCN(C(=O)c2cc(C(F)(F)F)cc(C(F)(F)F)c2)[C@H](Cc2ccccc2)C1 [Example 45 (f), (2R,4S)-1-[2-benzyl-1-(3,5-bistrifluoromethylbenzoyl)piperidin-4-yl]-3-cyclohexylurea]
4 | 0.011 | CCCC(=O)N[C@H]1CCN(C(=O)c2cc(C(F)(F)F)cc(C(F)(F)F)c2)[C@H](Cc2ccc(Cl)cc2)C1 [Example 28, (2R,4S)-N-[1-(3,5-Bistrifluoromethylbenzoyl)-2-(4-chlorobenzyl)piperidin-4-yl]-butyramide]
5 | 0.0076 | CCNC(=O)N[C@H]1CCN(C(=O)c2cc(C(F)(F)F)cc(C(F)(F)F)c2)[C@H](Cc2ccc(Cl)cc2)C1 [45 (c), (2R,4S)-1-[1-(3,5-bistrifluoromethylbenzoyl)-2-(4-chlorobenzyl)piperdin-4-yl]-3-ethylurea]
